Legend:
Assay in all cases: combination Emax (second highest fraction inhibited in the dose matrix, 72 h); higher = more inhibition; extreme values may be limits of the assay
[1] = tested on: RPMI-8226 (Plasma Cell Myeloma)
Outline: (§1)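 After 24 hours at 37°C and 5% CO2 in 1536-well plates, cells in DMEM/F12 or RPMI plus 10% FBS received two-drug dose matrices for 72 hours. Viability came from CellTiter-Glo 2.0 luminescence and was scaled as inhibition, anchored at 0 by vehicle wells and at 1 by blank wells. Combination Emax is taken as the second-highest inhibition in the matrix, and Bliss excess as the observed combination effect less EA + EB − EA·EB, with EA and EB the single-agent effects.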

[2] = tested on: KP-3 (Pancreatic Carcinoma)
Outline: as §1

[3] = tested on: VMRC-RCZ (Kidney Carcinoma)
Outline: as §1

[4] = tested on: IM-95 (Gastric Carcinoma)
Outline: as §1

[5] = tested on: SK-GT-4 (Esophageal Adenocarcinoma)
Outline: as §1

SJSA-1 (Osteosarcoma) = tested on: SJSA-1 (Osteosarcoma)
Outline: as §1

[6] = tested on: KYSE-270 (Esophageal Squamous Cell Carcinoma)
Outline: as §1

[7] = tested on: SUP-B15 (B-Lymphoblastic Leukemia)
Outline: as §1

[8] = tested on: JHH-4 (Hepatocellular Carcinoma)
Outline: as §1

[9] = tested on: H9 (T-Cell Non-Hodgkin's Lymphoma)
Outline: as §1

[10] = tested on: NCI-H520 (Squamous Cell Lung Carcinoma)
Outline: as §1

RD (Rhabdomyosarcoma) = tested on: RD (Rhabdomyosarcoma)
Outline: as §1

[11] = tested on: HCC1419 (Breast Carcinoma)
Outline: as §1

[12] = tested on: HCC1187 (Breast Carcinoma)
Outline: as §1

[13] = tested on: SNU-398 (Hepatocellular Carcinoma)
Outline: as §1

[14] = tested on: ESO51 (Esophageal Adenocarcinoma)
Outline: as §1

[15] = tested on: KY821 (Acute Myeloid Leukemia)
Outline: as §1

[16] = tested on: CHSA8926 (Chondrosarcoma)
Outline: as §1

[17] = tested on: KU812 (Chronic Myelogenous Leukemia)
Outline: as §1

[18] = tested on: T-T (Esophageal Squamous Cell Carcinoma)
Outline: as §1

Row | SMILES | combination Emax [1] | combination Emax [2] | combination Emax [3] | combination Emax [4] | combination Emax [5] | combination Emax (SJSA-1 (Osteosarcoma)) | combination Emax [6] | combination Emax [7] | combination Emax [8] | combination Emax [9] | combination Emax [10] | combination Emax (RD (Rhabdomyosarcoma)) | combination Emax [11] | combination Emax [12] | combination Emax [13] | combination Emax [14] | combination Emax [15] | combination Emax [16] | combination Emax [17] | combination Emax [18]
1 | Cn1cnc2c(F)c(Nc3ccc(Br)cc3Cl)c(C(=O)NOCCO)cc21 [Selumetinib] + C[C@@H]1COCCN1C2=NC(=NC(=C2)C3(CC3)[S@](=N)(=O)C)C4=C5C=CNC5=NC=C4 [AZD6738] (first compound max 10 µM, 7x7, partner max 10 µM) | 0.871 | 0.156 | 0.217 | 0.304 | 0.616 | 0.559 | 0.524 | 0.986 | 0.752 | 1 | 0.406 | 0.522 | 0.174 | 0.636 | 0.742 | 0.857 | 0.944 | 0.404 | 0.969 | 0.292
2 | CC1(C)CCC(CN2CCN(c3ccc(C(=O)NS(=O)(=O)c4ccc(NCC5CCOCC5)c([N+](=O)[O-])c4)c(Oc4cnc5[nH]ccc5c4)c3)CC2)=C(c2ccc(Cl)cc2)C1 [Venetoclax] + C1CN(CCC1(C(=O)N[C@@H](CCO)C2=CC=C(C=C2)Cl)N)C3=NC=NC4=C3C=CN4 [Capivasertib] (first compound max 1 µM, 7x7, partner max 3 µM) | 0.172 | 0.137 | 0.206 | 0.398 | 0.484 | 0.31 | 0.711 | 1 | 0.119 | 0.541 | 0.609 | 0.198 | 0.53 | 0.183 | 0.217 | 0.11 | 1 | 0.331 | 0.48 | 0.221
3 | CC1(C)CCC(CN2CCN(c3ccc(C(=O)NS(=O)(=O)c4ccc(NCC5CCOCC5)c([N+](=O)[O-])c4)c(Oc4cnc5[nH]ccc5c4)c3)CC2)=C(c2ccc(Cl)cc2)C1 [Venetoclax] + C=CCn1c(=O)c2cnc(Nc3ccc(N4CCN(C)CC4)cc3)nc2n1-c1cccc(C(C)(C)O)n1 [AZD1775] (first compound max 1 µM, partner max 1 µM) | 0.538 | 0.307 | 0.467 | 0.299 | 0.715 | 0.453 | 0.946 | 1 | 0.343 | 0.966 | 0.647 | 0.546 | 0.254 | 0.442 | 0.711 | 0.647 | 1 | 0.57 | 0.776 | 0.711
4 | CC1(C)CCC(CN2CCN(c3ccc(C(=O)NS(=O)(=O)c4ccc(NCC5CCOCC5)c([N+](=O)[O-])c4)c(Oc4cnc5[nH]ccc5c4)c3)CC2)=C(c2ccc(Cl)cc2)C1 [Venetoclax] + CCN(CCO)CCCOc1ccc2c(Nc3cc(CC(=O)Nc4cccc(F)c4)[nH]n3)ncnc2c1 [AZD2811] (first compound max 1 µM, 7x7, partner max 1 µM) | 0.481 | 0.148 | 0.178 | 0.412 | 0.409 | 0.222 | 0.716 | 1 | 0.205 | 0.888 | 0.258 | 0.172 | 0.212 | 0.886 | 0.515 | 0.117 | 0.978 | 0.34 | 0.65 | 0.181
5 | CC1(C)CCC(CN2CCN(c3ccc(C(=O)NS(=O)(=O)c4ccc(NCC5CCOCC5)c([N+](=O)[O-])c4)c(Oc4cnc5[nH]ccc5c4)c3)CC2)=C(c2ccc(Cl)cc2)C1 [Venetoclax] + CN(C)CCCOc1ccc(-c2ccc3ncc4c(c3c2)n(C2CCOCC2)c(=O)n4C)cn1 [AZD0156] (first compound max 1 µM, 7x7, partner max 1 µM) | 0.43 | 0.146 | 0.14 | 0.19 | 0.392 | 0.177 | 0.785 | 1 | 0.234 | 0.156 | 0.354 | 0.161 | 0.289 | 0.173 | 0.234 | 0.147 | 0.926 | 0.212 | 0.403 | 0.204
6 | CC1(C)CCC(CN2CCN(c3ccc(C(=O)NS(=O)(=O)c4ccc(NCC5CCOCC5)c([N+](=O)[O-])c4)c(Oc4cnc5[nH]ccc5c4)c3)CC2)=C(c2ccc(Cl)cc2)C1 [Venetoclax] + COc1cc(Nc2ncc3c(n2)-c2ccc(Cl)cc2C(c2c(F)cccc2OC)=NC3)ccc1C(=O)O [Alisertib] (first compound max 1 µM, 7x7, partner max 10 µM) | 0.685 | 0.103 | 0.21 | 0.412 | 0.444 | 0.33 | 0.627 | 1 | 0.602 | 0.802 | 0.54 | 0.543 | 0.15 | 0.744 | 0.498 | 0.213 | 1 | 0.531 | 0.838 | 0.487
7 | CC1(C)CCC(CN2CCN(c3ccc(C(=O)NS(=O)(=O)c4ccc(NCC5CCOCC5)c([N+](=O)[O-])c4)c(Oc4cnc5[nH]ccc5c4)c3)CC2)=C(c2ccc(Cl)cc2)C1 [Venetoclax] + C[C@@H]1COCCN1C2=NC(=NC(=C2)C3(CC3)[S@](=N)(=O)C)C4=C5C=CNC5=NC=C4 [AZD6738] (first compound max 1 µM, 7x7, partner max 10 µM) | 0.962 | 0.323 | 0.434 | 0.169 | 0.589 | 0.478 | 0.869 | 1 | 0.254 | 1 | 0.654 | 0.372 | 0.343 | 0.501 | 0.673 | 0.82 | 1 | 0.469 | 0.83 | 0.485
8 | CC1(C)CCC(CN2CCN(c3ccc(C(=O)NS(=O)(=O)c4ccc(NCC5CCOCC5)c([N+](=O)[O-])c4)c(Oc4cnc5[nH]ccc5c4)c3)CC2)=C(c2ccc(Cl)cc2)C1 [Venetoclax] + C[C@@H](Nc1cc(F)cc(F)c1)c1cc(C(=O)N(C)C)cc2c(=O)cc(N3CCOCC3)oc12 [AZD8186] (first compound max 1 µM, 7x7, partner max 3 µM) | 0.194 | 0.0603 | 0.201 | 0.208 | 0.229 | 0.123 | 0.653 | 1 | 0.211 | 0.299 | 0.488 | 0.265 | 0.181 | 0.138 | 0.166 | 0.334 | 1 | 0.478 | 0.205 | 0.172
9 | CC1(C)CCC(CN2CCN(c3ccc(C(=O)NS(=O)(=O)c4ccc(NCC5CCOCC5)c([N+](=O)[O-])c4)c(Oc4cnc5[nH]ccc5c4)c3)CC2)=C(c2ccc(Cl)cc2)C1 [Venetoclax] + Cc1cc2ncnn2cc1Nc1ncc2c(n1)n(C1CCOCC1)c(=O)n2C [AZD7648] (first compound max 1 µM, 7x7, partner max 10 µM) | 0.438 | 0.13 | 0.112 | 0.155 | 0.374 | 0.291 | 0.675 | 1 | 0.208 | 0.396 | 0.54 | 0.183 | 0.383 | 0.142 | 0.29 | 0.131 | 0.956 | 0.359 | 0.489 | 0.172
10 | CC1(C)CCC(CN2CCN(c3ccc(C(=O)NS(=O)(=O)c4ccc(NCC5CCOCC5)c([N+](=O)[O-])c4)c(Oc4cnc5[nH]ccc5c4)c3)CC2)=C(c2ccc(Cl)cc2)C1 [Venetoclax] + Cn1cnc2c(F)c(Nc3ccc(Br)cc3Cl)c(C(=O)NOCCO)cc21 [Selumetinib] (first compound max 1 µM, 7x7, partner max 3 µM) | 0.325 | 0.135 | 0.122 | 0.179 | 0.473 | 0.325 | 0.554 | 1 | 0.188 | 0.931 | 0.113 | 0.217 | 0.201 | 0.129 | 0.352 | 0.384 | 1 | 0.148 | 0.783 | 0.221

— the supplement of paper PMC11061612
